Entries after “also recorded” stand apart in the source; their conditions may differ. Marks after values point to notes of the source that are not given here. One block for each compound: values may come before it.
Columns and labels:
[1] = Aqueous N-acetyl-L-glutamine and glutamine heat stability at 100° C. (HPLC); assay type: physicochemical; conditions: for Stability during incubation at 100° C. (in words): aqueous solution, 2 hour incubation at 100° C.
Protocol: In order to test the stability of aqueous N-acetyl-glutamine upon heating, the following procedure was followed. Aqueous solutions of N-acetyl-L-glutamine (obtained from Sigma, catalog no. A-9125) and glutamine (obtained from Aldrich, catalog no. G-320-2) at approximately 1 mg/mL (5.3 mM and 6.8 mM, respectively) were prepared without pH adjustment. The pH of the resulting N-acetyl-L-glutamine solution was 2.9 and the pH of the glutamine solution was 6.0. The solutions were heated at 100° C. using a Reacti-Therm™ stirring heat block with sealed 4 mL vessels, one for each time point: 15 minutes, 30 minutes, 1 hour and 2 hours. The samples were removed from the heat block and immediately placed into ice until cool. An aliquot of each sample was filtered through 0.45 micrometer filters (Millipore Millex®-HV, 25 mm) for assessment by HPLC. HPLC analysis was conducted using an Inertsil® C8, 5 micrometer, 4.6×250 mm column (obtained from Keystone Scientific, Inc., Bellefonte, Pa.). The mobile phase was water adjusted to pH 2.2 with HCl (isocratic at 1 mL/minute). The injection volume was 10 microliters. Ultraviolet detection was at 214 nm.

[2] = Stability in liquid nutritional type products during retort sterilization and room temperature storage; assay type: physicochemical
Protocol: In order to test the stability of N-acetyl-L-glutamine in a matrix similar to that found in liquid nutritional type products, the following procedure was followed. […] The product containing N-acetyl-L-glutamine was made according to the procedure set forth above in Example 1. The product containing glutamine was made in a similar manner, except […].79 kg) was substituted for N-acetyl-L-glutamine. The products were assessed for degradation before and after a retort sterilization process, which is typical for liquid nutritional processing (here, 128° C. for 5 minutes). The products were stored at room temperature (20-22° C.) and assessed for evidence of degradation at 1, 2 and 3 months. Glutamine, N-acetyl-L-glutamine and pyroglutamic acid (if present) were quantified at each process and time point. In order to analyze by HPLC for glutamine, N-acetyl-L-glutamine and pyroglutamic acid, samples were filtered as follows. A 5.0 mL aliquot was transferred to a 50 mL volumetric flask. Twenty drops of 1 M hydrochloric acid was added and the sample was diluted to volume with deionized water. An aliquot was filtered through a 0.45 micron filter (Millipore, Millex®-HV, 25 mm). The samples were analyzed by HPLC as described above (Heat Stability section). The total amount of pyroglutamic acid present in the protein formula, including both free pyroglutamic acid and N-terminal pyroglutamic acid, can be determined by the following method. Initially, samples were prepared as a water solution to a concentration of approximately 18 g total protein/L. A 20 microliter aliquot of the prepared sample material was placed in a 1.5 mL screw cap vial, and 980 microliters of a freshly prepared enzyme solution (0.05 M Tris, 0.005 M dithiothreitol, 0.001 M disodium ethylenediaminetetraacetic acid (EDTA), pH 8.0, containing 11 units of pyroglutamate aminopeptidase/mL) was added. The vial was tightly capped, and incubated at room temperature (21-24° C.) for 24 hours. The solution was then processed through a C-18 SPE cartridge as detailed below. For free pyroglutamic acid determination, the initial sample solution was diluted to a total protein content of 2-3 g/L in deionized water, and processed through a C-18 SPE cartridge. C-18 SPE (Solid Phase Extraction) cartridges (100 mg/1 mL size) were obtained from Burdick & Jackson, Muskegon, Mich. SPE cartridges were prepared for use with 2×5 volumes of methanol, and then rinsed with 2×5 volumes of deionized water. The 1 mL sample is then slowly applied, and flow-through material collected in a […] screw cap vial. Elution was completed by applying 2×500 microliters of deionized water, collecting pass through volume in the same vial. The eluate was mixed, and then an aliquot filtered through a 0.45 micrometer filter prior to HPLC analysis (25 mm, 0.45 micrometer filters were obtained from Gelman, Ann Arbor, Mich.). The HPLC system used had the following parameters: pump model G1312A, autosampler model G1313A, thermostatted column compartment model G1316A, diode array detector model G1315A, and peak integrator/data processor model […], all obtained from Agilent Technologies, Palo Alto, Calif. Column: 6.5×150 mm ION-310, 8 micrometer from Interaction Chromatography, San Jose, Calif. The system was pre-equilibrated in mobile phase (5 mN H2SO4) at 40° C. at 0.3 mL/min. prior to use. For analysis a 10 microliter aliquot of sample or standard was injected, and the column was eluted with mobile phase at 0.3 mL/min. and 40° C. Eluting materials were detected by UV absorption at 210 nm and 220 nm. The run time was 45 min. Unknown sample concentrations were determined by comparison to standards. Three aqueous solutions of pyroglutamic acid are usually sufficient as standards, i.e., 10, 20, and 40 mg/L (pyroglutamic acid obtained from Fluka, Milwaukee, Wis.).

[3] = 1 month at room temperature after sterilization
[4] = 2 months at room temperature after sterilization
[5] = 3 months at room temperature after sterilization
[6] = Post-Sterilization (retort, 128° C. for 5 minutes)
[7] = approx. 1 mg/mL, pH 6.0, 100° C., 30 min
[8] = approx. 1 mg/mL, pH 6.0, 100° C., 60 min
[9] = approx. 1 mg/mL, pH 6.0, 100° C., 120 min

Compound: CC(=O)N[C@@H](CCC(N)=O)C(=O)O [N-acetyl-L-glutamine]
NAQ (N-acetyl-L-glutamine) in N-acetyl-L-glutamine solution ([1]; approx. 1 mg/mL (5.3 mM), pH 2.9, 100° C., 0 min): 99.7 area % | NAQ (N-acetyl-L-glutamine) in N-acetyl-L-glutamine solution ([1]; approx. 1 mg/mL, pH 2.9, 100° C., 30 min): 98.1 area % | NAQ (N-acetyl-L-glutamine) in N-acetyl-L-glutamine solution ([1]; approx. 1 mg/mL, pH 2.9, 100° C., 60 min): 96.9 area % | NAQ (N-acetyl-L-glutamine) in N-acetyl-L-glutamine solution ([1]; approx. 1 mg/mL, pH 2.9, 100° C., 120 min): 93.4 area % | Stability during incubation at 100° C. (in words) [1]: much more stable than glutamine | NAE (N-acetyl-L-glutamic acid) in N-acetyl-L-glutamine solution ([1]; pH 2.9, 100° C., 0 min): 0.3 area % | 2,6-DPA (2,6-dioxopiperidinylacetamide) in N-acetyl-L-glutamine solution ([1]; pH 2.9, 100° C., 30 min): 0.6 area % | NAE (N-acetyl-L-glutamic acid) in N-acetyl-L-glutamine solution ([1]; pH 2.9, 100° C., 30 min): 1.2 area % | 2,6-DPA (2,6-dioxopiperidinylacetamide) in N-acetyl-L-glutamine solution ([1]; pH 2.9, 100° C., 60 min): 1.3 area % | NAE (N-acetyl-L-glutamic acid) in N-acetyl-L-glutamine solution ([1]; pH 2.9, 100° C., 60 min): 1.8 area % | 2,6-DPA (2,6-dioxopiperidinylacetamide) in N-acetyl-L-glutamine solution ([1]; pH 2.9, 100° C., 120 min): 2.7 area % | NAE (N-acetyl-L-glutamic acid) in N-acetyl-L-glutamine solution ([1]; pH 2.9, 100° C., 120 min): 3.7 area % | PGA (pyroglutamic acid) in N-acetyl-L-glutamine solution ([1]; pH 2.9, 100° C., 120 min): 0.2 area % | N-acetyl-L-glutamine in product with N-acetyl-L-glutamine [2, 3]: 89.8 mmol/L product | N-acetyl-L-glutamine in product with N-acetyl-L-glutamine [2, 4]: 94.1 mmol/L product | N-acetyl-L-glutamine in product with N-acetyl-L-glutamine [2, 5]: 89.3 mmol/L product | N-acetyl-L-glutamine in product with N-acetyl-L-glutamine [2, 6]: 89.8 mmol/L product | Degradation in the liquid nutritional type product (in words) ([2]; during sterilization or after 3 months room temperature storage): no degradation | N-acetyl-L-glutamine in product with N-acetyl-L-glutamine ([2]; liquid nutritional type product, Pre-Sterilization (theoretical 87.7)): 92.5 mmol/L product

GLN (glutamine) in glutamine solution ([1]; approx. 1 mg/mL (6.8 mM), pH 6.0, 100° C., 0 min): 100.0 height % | PGA (pyroglutamic acid) in glutamine solution ([1]; approx. 1 mg/mL, pH 6.0, 100° C., 0 min): none detected | GLN (glutamine) in glutamine solution [1, 7]: 90.2 height % | PGA (pyroglutamic acid) in glutamine solution [1, 7]: 9.8 height % | GLN (glutamine) in glutamine solution [1, 8]: 80.0 height % | PGA (pyroglutamic acid) in glutamine solution [1, 8]: 20.0 height % | GLN (glutamine) in glutamine solution [1, 9]: 53.6 height % | GLU (glutamate) in glutamine solution [1, 9]: 10.6 height % | PGA (pyroglutamic acid) in glutamine solution [1, 9]: 35.8 height % | Stability during incubation at 100° C. (in words) [1]: not stable | Glutamine in product with glutamine [2, 3]: 13.7 mmol/L product | pyroglutamic acid in product with glutamine ([2]; 1 month, calculated with response factor from glutamine standard): 92.9* mmol/L product | pyroglutamic acid in product with glutamine ([2]; 2 months, calculated with response factor from pyroglutamic acid standard): 79.8** mmol/L product | Glutamine in product with glutamine [2, 5]: none | pyroglutamic acid in product with glutamine ([2]; 3 months, calculated with response factor from pyroglutamic acid standard): 80.6** mmol/L product | Glutamine in product with glutamine [2, 6]: 34.2 mmol/L product | pyroglutamic acid in product with glutamine ([2]; Post-Sterilization, calculated with response factor from glutamine standard): 77.5* mmol/L product | pyroglutamic acid in product with glutamine ([2]; Pre-Sterilization, calculated with response factor from glutamine standard): 27.1* mmol/L product | Glutamine remaining as fraction of the original concentration ([2]; glutamine supplemented product, after the sterilization process): about ⅓ | Glutamine in product with glutamine ([2]; liquid nutritional type product, Pre-Sterilization (theoretical 87.6)): 97.8 mmol/L product
Compound: NC(=O)CC[C@H](N)C(=O)O [Glutamine, glutamine]
Glutamine in product with glutamine [2, 4]: no glutamine was detected; also recorded: trace

— patent publication US20030134851A1, “Methods and compositions for providing glutamine” (priority 2001, published 2003)
